Where a name gives a salt, the structure may show the parent alone.
Assays:
[1] = test system: c-Abl; assay: Nuclear and cytosolic c-Abl in HeLa/vector and HeLa/MUC1 cells after genotoxic agents (subcellular fractionation, immunoblot); format: cell-based, human; settings: 1 μM ADR, 2 hours
Excerpt: (§1) Cell culture. Human HeLa cervical cancer cells, HCT116/vector (HCT116 colorectal carcinoma cells stably transfected with an empty vector), HCT116/MUC1 (HCT116 colorectal carcinoma cells stably transfected with an expression vector encoding a MUC1 polypeptide), HCT116/MUC1(Y46F) (HCT116 colorectal carcinoma cells stably transfected with an expression vector encoding a mutant MUC1 polypeptide containing an amino acid substitution at position 46 changing a tyrosine (Y) to phenylalanine (F)) colon cancer cells (Ren et al., (2002) J. Biol. Chem. 277: 17616-17622) and 293 cells were cultured in Dulbecco's modified medium with 10% heat-inactivated fetal bovine serum, 100 units/ml penicillin, 100 μg/ml streptomycin and 2 mM L-glutamine. Human ZR-75-1/vector (ZR-75-1 breast cancer cells stably transfected with an empty vector) and ZR-75-1/MUC1siRNA (ZR-75-1 breast cancer cells stably transfected with an expression vector encoding an siRNA specific for MUC1) breast cancer cells (Ren et al., (2004) Cancer Cell 5:163-175) were grown in RPMI1640 medium containing 10% heat-inactivated fetal bovine serum and antibiotics. Cells were treated with 1 μM adriamycin (ADR; Calbiochem), 100 μM cisplatin (CDDP; Sigma) or 10 μM STI571 (Gleevec; Novartis, Basel, Switzerland).
Subcellular fractionation. Nuclear fractions were prepared as described (Kharbanda et al., (1996) Cancer Res. 56:3617-3621). Cytosolic fractions were prepared as described (Hill et al., (2004) EMBO J. 23:2134-2145). Cell membrane fractions were prepared with the Plasma Membrane Extraction Kit (BioVision Research Products, Mountain View, Calif.). Mitochondria were purified as described (Ren et al., (2004) Cancer Cell 5:163-175; Ren et al., (2006) Oncogene 25:20-31).
Immunoprecipitations and immunoblot analysis. Cell lysates were prepared as described (Kharbanda et al., (1995) Nature 376:785-788); Yoshida et al., (2005) Nat. Cell Biol. 7:278-285). Soluble proteins were incubated with anti-MUC1-N (Kufe et al., (1984) Hybridoma 3:223-232), anti-MUC1-C (Ab5; Neomarker, Montreal, Quebec), anti-Flag (Sigma, St. Louis, Mo.), anti-c-Abl (Ab3; Oncogene, San Diego, Calif.) or anti-14-3-3 (Abcam Inc., Cambridge, Mass.) antibodies for 2 hours at 4° C., followed by precipitation with protein G-Sepharose beads for 1 hour. […] Intensity of the signals was determined by densitometric scanning. Statistical significance was determined by the Student's t-test.

[2] = test system: GFP-c-Abl; assay: Nuclear targeting of GFP-c-Abl in transiently transfected 293 cells; format: cell-based, human
Excerpt: as §1
Cell transfections. […]

[3] = test system: HCT116 cells; assay: Assessment of apoptosis (sub-G1 DNA, propidium iodide, FACScan); format: cell-based, human; settings: 10 μM STI571 with CDDP, 12 h
[4] = test system: MUC1-CD (purified MUC1 cytoplasmic domain, thrombin-cleaved from GST-MUC1-CD)
[5] = test system: MUC1-CD(Y60F)
[6] = test system: MUC1 (mucin 1), wild-type, expressed in cells as heterodimer of MUC1-N and MUC1-C
[7] = test system: MUC1(Y60F), MUC1 with tyrosine 60 of the cytoplasmic domain changed to phenylalanine

Q: `COc1cccc2c1C(=O)c1c(O)c3c(c(O)c1C2=O)C[C@@](O)(C(=O)CO)C[C@@H]3O[C@H]1C[C@H](N)[C@H](O)[C@H](C)O1` [ADR, adriamycin] was tested. Which “nuclear targeting of c-Abl” value ([1]; HeLa/MUC1 cells) did it give?
A: little to no nuclear targeting of c-Abl

Q: And the “nuclear targeting of c-Abl” value ([1]; HeLa/vector cells)?
A: targeting of c-Abl to the nucleus

Q: What about the “ADR-induced nuclear targeting of c-Abl” value ([2]; GFP-c-Abl with coexpressed MUC1, 2 hours) of the same compound?
A: attenuated by coexpression of MUC1

Q: And the “nuclear targeting of GFP-tagged c-Abl” value ([2]; GFP-c-Abl without MUC1, ADR, 2 hours)?
A: increased by ADR treatment

Q: With `Cc1ccc(NC(=O)c2ccc(CN3CCN(C)CC3)cc2)cc1Nc1nccc(-c2cccnc2)n1` [STI751, imatinib mesylate] as the compound, how does the “effect on CDDP-induced apoptosis (sub-G1 DNA)” value (“effect” below) ([3]; HCT116/MUC1(Y60F) cells) read?
A: significantly attenuated

Q: What about the “effect” value ([3]; HCT116/MUC1 cells) of the same compound?
A: no significant effect

Q: And the “effect” value ([3]; HCT116/vector cells)?
A: significantly attenuated

Q: “GST-c-Abl (glutathione-S-transferase fused in frame with a wild-type c-Abl polypeptide)” was tested. Which “phosphorylation of MUC1-CD (in vitro kinase assay, 32P-ATP, SDS-PAGE and autoradiography)” value [4] did it give?
A: Analysis of the reaction products by SDS-PAGE and autoradiography showed phosphorylation of MUC1-CD

Q: What about the “phosphorylation of MUC1-CD(Y60F) (in vitro kinase assay, 32P-ATP, SDS-PAGE and autoradiography)” value [5] of the same compound?
A: c-Abl phosphorylation was substantially decreased with the MUC1-CD(Y60F) mutant

Q: Which “phosphorylation of MUC1-CD (in vitro kinase assay, 32P-ATP, SDS-PAGE and autoradiography)” value [4] does the source give for “GST-c-Abl(K-R) (GST fused to a kinase defective mutant c-Abl, lysine to arginine in the active site)” here?
A: There was no detectable phosphorylation when MUC1-CD was incubated with a purified kinase-inactive c-Abl(K-R)

Q: How did the “c-Abl Thr-735 phosphorylation (anti-c-Abl precipitates, immunoblot anti-phospho-c-Abl-Thr-735)” value [6] turn out when “c-Abl (nonreceptor c-Abl tyrosine kinase), endogenous in human cell lines” was run?
A: c-Abl Thr-735 phosphorylation was attenuated by expression of MUC1

Q: And the “c-Abl Thr-735 phosphorylation (anti-c-Abl precipitates, immunoblot anti-phospho-c-Abl-Thr-735)” value [7]?
A: c-Abl Thr-735 phosphorylation was attenuated by expression of MUC1, but not MUC1(Y60F), in HCT116 cells
